Data from ChEMBL document CHEMBL4052645, “Discovery of potent and efficacious pyrrolopyridazines as dual JAK1/3 inhibitors” (Bioorg Med Chem Lett, 2017).

Key:
[1] = target: Ephrin type-B receptor 4 (Homo sapiens) (UniProt P54760); experiment: Inhibition of wild-type human partial length EPHB4 (H585 to G892 residues) expressed in bacterial expression system assessed as residual activity at 50 nM by Kinomescan method relative to control
[2] = target: Cyclin-dependent kinase 16 (Homo sapiens) (UniProt Q00536); experiment: Inhibition of wild-type human partial length PCTAIRE1 (G160 to A474 residues) expressed in mammalian expression system assessed as residual activity at 50 nM by Kinomescan method relative to control
[3] = target: Serine/threonine-protein kinase LATS1 (Homo sapiens) (UniProt O95835); experiment: Inhibition of wild-type human partial length LATS1 (Q678 to V1130 residues) expressed in bacterial expression system assessed as residual activity at 50 nM by Kinomescan method relative to control
[4] = target: Proto-oncogene tyrosine-protein kinase ROS (Homo sapiens) (UniProt P08922); experiment: Inhibition of wild-type human partial length ROS (A1921 to N2240 residues) expressed in bacterial expression system assessed as residual activity at 50 nM by Kinomescan method relative to control
[5] = target: Serine/threonine-protein kinase SIK3 (Homo sapiens) (UniProt Q9Y2K2); experiment: Inhibition of wild-type human partial length QSK (A90 to L395 residues) expressed in mammalian expression system assessed as residual activity at 50 nM by Kinomescan method relative to control
[6] = target: Leukocyte tyrosine kinase receptor (Homo sapiens) (UniProt P29376); experiment: Inhibition of wild-type human partial length LTK (P422 to S744 residues) expressed in bacterial expression system assessed as residual activity at 50 nM by Kinomescan method relative to control
[7] = target: Inhibitor of nuclear factor kappa-B kinase subunit epsilon (Homo sapiens) (UniProt Q14164); experiment: Inhibition of wild-type human full length IKK-epsilon (M1 to V716 residues) expressed in mammalian expression system assessed as residual activity at 50 nM by Kinomescan method relative to control
[8] = target: Macrophage-stimulating protein receptor (Homo sapiens) (UniProt Q04912); experiment: Inhibition of wild-type human partial length RON (I1057 to L1363 residues) expressed in bacterial expression system assessed as residual activity at 50 nM by Kinomescan method relative to control
[9] = target: Phosphorylase b kinase gamma catalytic chain, skeletal muscle/heart isoform (Homo sapiens) (UniProt Q16816); experiment: Inhibition of wild-type human full length PHKG1 (M1 to Y387 residues) expressed in bacterial expression system assessed as residual activity at 50 nM by Kinomescan method relative to control
[10] = target: Protein-tyrosine kinase 6 (Homo sapiens) (UniProt Q13882); experiment: Inhibition of wild-type human partial length BRK (L166 to T451 residues) expressed in bacterial expression system assessed as residual activity at 50 nM by Kinomescan method relative to control
[11] = target: Serine/threonine-protein kinase SBK1 (Homo sapiens) (UniProt Q52WX2); experiment: Inhibition of wild-type human partial length SBK1 (P23 to P348 residues) expressed in mammalian expression system assessed as residual activity at 50 nM by Kinomescan method relative to control
[12] = target: Ribosomal protein S6 kinase beta-1 (Homo sapiens) (UniProt P23443); experiment: Inhibition of wild-type human partial length P70S6K (M1 to S421 residues) expressed in mammalian expression system assessed as residual activity at 50 nM by Kinomescan method relative to control
[13] = target: Cytoplasmic tyrosine-protein kinase BMX (Homo sapiens) (UniProt P51813); experiment: Inhibition of wild-type human full length BMX (M1 to H675 residues) expressed in bacterial expression system assessed as residual activity at 50 nM by Kinomescan method relative to control
[14] = target: Citron Rho-interacting kinase (Homo sapiens) (UniProt O14578); experiment: Inhibition of wild-type human partial length CRIK (M68 to E432 residues) expressed in bacterial expression system assessed as residual activity at 50 nM by Kinomescan method relative to control
[15] = target: Platelet-derived growth factor receptor beta (Homo sapiens) (UniProt P09619); experiment: Inhibition of wild-type human partial length PDGFRB (V582 to Y1009 residues) expressed in bacterial expression system assessed as residual activity at 50 nM by Kinomescan method relative to control
[16] = target: Calcium/calmodulin-dependent protein kinase type IV (Homo sapiens) (UniProt Q16566); experiment: Inhibition of wild-type human partial length CAMK4 (A22 to A322 residues) expressed in bacterial expression system assessed as residual activity at 50 nM by Kinomescan method relative to control
[17] = target: cAMP-dependent protein kinase catalytic subunit PRKX (Homo sapiens) (UniProt P51817); experiment: Inhibition of wild-type human partial length PRKX (M1 to F358 residues) expressed in bacterial expression system assessed as residual activity at 50 nM by Kinomescan method relative to control
[18] = target: Tyrosine-protein kinase FRK (Homo sapiens) (UniProt P42685); experiment: Inhibition of wild-type human partial length FRK (A215 to F503 residues) expressed in bacterial expression system assessed as residual activity at 50 nM by Kinomescan method relative to control
[19] = target: Glycogen synthase kinase-3 alpha (Homo sapiens) (UniProt P49840); experiment: Inhibition of wild-type human full length GSK3A (M1 to S483 residues) expressed in bacterial expression system assessed as residual activity at 50 nM by Kinomescan method relative to control
[20] = target: Serine/threonine-protein kinase Chk2 (Homo sapiens) (UniProt O96017); experiment: Inhibition of wild-type human partial length CHK2 (S253 to E574 residues) expressed in bacterial expression system assessed as residual activity at 50 nM by Kinomescan method relative to control
[21] = target: Ribosomal protein S6 kinase alpha-1 (Homo sapiens) (UniProt Q15418); experiment: Inhibition of wild-type human partial length C-terminal RSK1 […] (P360 to L681 residues) expressed in bacterial expression system assessed as residual activity at 50 nM by Kinomescan method relative to control
[22] = target: Dual specificity mitogen-activated protein kinase kinase 2 (Homo sapiens) (UniProt P36507); experiment: Inhibition of wild-type human full length MAP2K2 (M1 to V400 residues) expressed in mammalian expression system assessed as residual activity at 50 nM by Kinomescan method relative to control
[23] = target: Serine/threonine-protein kinase TAO1 (Homo sapiens) (UniProt Q7L7X3); experiment: Inhibition of wild-type human partial length TAO1 (M1 to A320 residues) expressed in mammalian expression system assessed as residual activity at 50 nM by Kinomescan method relative to control
[24] = system: Phosphatidylinositol 4,5-bisphosphate 3-kinase catalytic subunit alpha isoform (Homo sapiens), P42336 [C420R]; experiment: Inhibition of human partial length PI3KCA C420R mutant (R108 to N1068 residues) expressed in mammalian expression system assessed as residual activity at 50 nM by Kinomescan method relative to control
[25] = target: Serine/threonine-protein kinase D1 (Homo sapiens) (UniProt Q15139); experiment: Inhibition of wild-type human partial length PKD1 (G551 to E870 residues) expressed in bacterial expression system assessed as residual activity at 50 nM by Kinomescan method relative to control

Citron Rho-interacting kinase (Homo sapiens), sequence (O14578 whole entry, the tested form may be a part): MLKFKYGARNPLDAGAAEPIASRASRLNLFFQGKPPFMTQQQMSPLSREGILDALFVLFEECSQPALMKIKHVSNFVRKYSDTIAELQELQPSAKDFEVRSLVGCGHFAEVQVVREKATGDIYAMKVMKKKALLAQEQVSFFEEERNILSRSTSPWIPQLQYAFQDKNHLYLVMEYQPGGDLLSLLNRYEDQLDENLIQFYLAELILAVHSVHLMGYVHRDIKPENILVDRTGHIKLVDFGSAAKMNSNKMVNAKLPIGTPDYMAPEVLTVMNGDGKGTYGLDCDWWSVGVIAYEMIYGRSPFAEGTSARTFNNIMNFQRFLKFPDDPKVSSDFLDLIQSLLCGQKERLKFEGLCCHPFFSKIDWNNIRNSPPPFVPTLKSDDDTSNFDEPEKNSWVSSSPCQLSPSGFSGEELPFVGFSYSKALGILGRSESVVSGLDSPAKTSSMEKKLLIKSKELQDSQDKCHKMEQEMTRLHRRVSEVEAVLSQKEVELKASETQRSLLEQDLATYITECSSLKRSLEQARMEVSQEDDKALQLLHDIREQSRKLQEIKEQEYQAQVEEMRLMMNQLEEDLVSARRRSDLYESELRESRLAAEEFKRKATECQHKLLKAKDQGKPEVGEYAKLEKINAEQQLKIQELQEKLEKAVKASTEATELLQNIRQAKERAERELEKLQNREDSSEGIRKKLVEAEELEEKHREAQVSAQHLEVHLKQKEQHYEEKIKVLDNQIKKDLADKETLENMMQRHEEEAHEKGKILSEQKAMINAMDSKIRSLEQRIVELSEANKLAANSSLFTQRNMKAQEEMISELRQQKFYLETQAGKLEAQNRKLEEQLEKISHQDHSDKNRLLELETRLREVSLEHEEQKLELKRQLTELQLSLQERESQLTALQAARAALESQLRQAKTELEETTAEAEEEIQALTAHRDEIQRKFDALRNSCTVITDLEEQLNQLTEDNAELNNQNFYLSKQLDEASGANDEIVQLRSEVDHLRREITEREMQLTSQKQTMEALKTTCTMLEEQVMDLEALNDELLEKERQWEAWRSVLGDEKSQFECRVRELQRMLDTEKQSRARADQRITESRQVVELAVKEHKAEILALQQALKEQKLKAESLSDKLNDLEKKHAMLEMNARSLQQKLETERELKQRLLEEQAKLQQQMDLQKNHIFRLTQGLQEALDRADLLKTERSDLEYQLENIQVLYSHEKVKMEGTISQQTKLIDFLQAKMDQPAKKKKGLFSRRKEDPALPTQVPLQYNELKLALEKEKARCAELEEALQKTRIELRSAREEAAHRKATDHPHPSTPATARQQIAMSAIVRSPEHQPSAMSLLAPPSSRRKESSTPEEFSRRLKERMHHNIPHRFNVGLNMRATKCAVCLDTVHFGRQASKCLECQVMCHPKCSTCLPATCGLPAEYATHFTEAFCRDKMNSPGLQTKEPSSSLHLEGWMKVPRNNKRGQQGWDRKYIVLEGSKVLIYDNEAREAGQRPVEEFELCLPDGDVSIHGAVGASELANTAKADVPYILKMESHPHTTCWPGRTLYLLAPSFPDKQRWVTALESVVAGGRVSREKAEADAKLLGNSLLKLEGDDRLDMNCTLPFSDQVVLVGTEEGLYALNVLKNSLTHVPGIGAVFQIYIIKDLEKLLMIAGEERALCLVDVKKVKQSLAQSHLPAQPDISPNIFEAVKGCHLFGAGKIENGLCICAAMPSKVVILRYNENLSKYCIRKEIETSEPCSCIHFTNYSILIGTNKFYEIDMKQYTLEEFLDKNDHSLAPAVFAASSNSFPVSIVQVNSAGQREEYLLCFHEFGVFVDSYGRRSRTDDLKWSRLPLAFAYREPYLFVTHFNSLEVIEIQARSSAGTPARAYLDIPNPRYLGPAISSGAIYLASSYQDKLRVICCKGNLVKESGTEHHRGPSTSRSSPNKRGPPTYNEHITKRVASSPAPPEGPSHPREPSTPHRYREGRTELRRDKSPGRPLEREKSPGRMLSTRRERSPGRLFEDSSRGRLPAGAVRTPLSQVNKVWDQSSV
cAMP-dependent protein kinase catalytic subunit PRKX (Homo sapiens), sequence (P51817 whole entry, the tested form may be a part): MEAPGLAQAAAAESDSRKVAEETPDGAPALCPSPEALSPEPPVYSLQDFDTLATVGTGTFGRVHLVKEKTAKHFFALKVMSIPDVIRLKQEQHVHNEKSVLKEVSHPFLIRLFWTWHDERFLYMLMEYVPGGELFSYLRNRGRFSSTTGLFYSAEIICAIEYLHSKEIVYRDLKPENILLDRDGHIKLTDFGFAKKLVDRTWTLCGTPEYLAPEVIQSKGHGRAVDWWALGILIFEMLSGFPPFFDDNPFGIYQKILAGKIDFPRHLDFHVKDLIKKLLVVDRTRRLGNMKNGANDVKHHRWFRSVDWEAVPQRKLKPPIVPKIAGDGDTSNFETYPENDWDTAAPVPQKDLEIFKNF
Serine/threonine-protein kinase LATS1 (Homo sapiens), sequence (O95835 whole entry, the tested form may be a part): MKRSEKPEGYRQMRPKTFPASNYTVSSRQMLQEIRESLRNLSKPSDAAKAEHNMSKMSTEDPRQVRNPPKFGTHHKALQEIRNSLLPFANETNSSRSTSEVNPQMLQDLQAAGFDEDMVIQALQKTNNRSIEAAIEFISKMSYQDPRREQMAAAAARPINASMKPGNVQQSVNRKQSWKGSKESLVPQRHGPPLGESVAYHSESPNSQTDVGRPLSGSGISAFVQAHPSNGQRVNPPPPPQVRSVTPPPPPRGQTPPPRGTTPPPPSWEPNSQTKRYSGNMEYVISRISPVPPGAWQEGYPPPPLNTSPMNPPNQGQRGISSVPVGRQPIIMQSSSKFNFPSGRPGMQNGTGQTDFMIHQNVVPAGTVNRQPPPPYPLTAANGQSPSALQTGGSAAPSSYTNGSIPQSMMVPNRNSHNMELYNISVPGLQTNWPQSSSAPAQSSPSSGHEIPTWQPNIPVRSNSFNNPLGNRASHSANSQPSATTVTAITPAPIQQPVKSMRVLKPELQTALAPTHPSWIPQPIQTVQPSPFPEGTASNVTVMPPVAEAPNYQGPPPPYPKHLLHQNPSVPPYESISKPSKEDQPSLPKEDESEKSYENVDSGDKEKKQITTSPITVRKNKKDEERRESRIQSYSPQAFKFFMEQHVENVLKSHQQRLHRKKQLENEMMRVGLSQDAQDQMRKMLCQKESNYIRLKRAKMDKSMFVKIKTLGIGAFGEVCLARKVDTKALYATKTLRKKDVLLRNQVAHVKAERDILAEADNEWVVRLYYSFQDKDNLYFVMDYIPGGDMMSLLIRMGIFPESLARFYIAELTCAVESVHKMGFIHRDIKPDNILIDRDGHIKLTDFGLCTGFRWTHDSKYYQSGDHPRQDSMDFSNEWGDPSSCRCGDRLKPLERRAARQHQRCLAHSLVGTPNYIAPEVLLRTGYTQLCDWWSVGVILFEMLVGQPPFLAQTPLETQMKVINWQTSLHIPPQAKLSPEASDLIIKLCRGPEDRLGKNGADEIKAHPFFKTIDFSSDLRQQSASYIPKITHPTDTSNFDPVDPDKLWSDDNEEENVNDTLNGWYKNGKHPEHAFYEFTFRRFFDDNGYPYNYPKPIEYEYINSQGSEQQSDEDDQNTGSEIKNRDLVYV
Macrophage-stimulating protein receptor (Homo sapiens), sequence (Q04912 25-304 limits assumed): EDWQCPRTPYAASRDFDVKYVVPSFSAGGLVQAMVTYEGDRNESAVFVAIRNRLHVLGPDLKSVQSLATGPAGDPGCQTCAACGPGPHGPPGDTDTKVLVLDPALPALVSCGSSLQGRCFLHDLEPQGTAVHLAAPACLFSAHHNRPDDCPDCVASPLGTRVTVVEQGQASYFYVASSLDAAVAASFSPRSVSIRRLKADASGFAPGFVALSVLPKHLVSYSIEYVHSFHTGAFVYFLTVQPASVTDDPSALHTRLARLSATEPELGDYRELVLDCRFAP
Macrophage-stimulating protein receptor (Homo sapiens), sequence (Q04912 310-1400 limits assumed): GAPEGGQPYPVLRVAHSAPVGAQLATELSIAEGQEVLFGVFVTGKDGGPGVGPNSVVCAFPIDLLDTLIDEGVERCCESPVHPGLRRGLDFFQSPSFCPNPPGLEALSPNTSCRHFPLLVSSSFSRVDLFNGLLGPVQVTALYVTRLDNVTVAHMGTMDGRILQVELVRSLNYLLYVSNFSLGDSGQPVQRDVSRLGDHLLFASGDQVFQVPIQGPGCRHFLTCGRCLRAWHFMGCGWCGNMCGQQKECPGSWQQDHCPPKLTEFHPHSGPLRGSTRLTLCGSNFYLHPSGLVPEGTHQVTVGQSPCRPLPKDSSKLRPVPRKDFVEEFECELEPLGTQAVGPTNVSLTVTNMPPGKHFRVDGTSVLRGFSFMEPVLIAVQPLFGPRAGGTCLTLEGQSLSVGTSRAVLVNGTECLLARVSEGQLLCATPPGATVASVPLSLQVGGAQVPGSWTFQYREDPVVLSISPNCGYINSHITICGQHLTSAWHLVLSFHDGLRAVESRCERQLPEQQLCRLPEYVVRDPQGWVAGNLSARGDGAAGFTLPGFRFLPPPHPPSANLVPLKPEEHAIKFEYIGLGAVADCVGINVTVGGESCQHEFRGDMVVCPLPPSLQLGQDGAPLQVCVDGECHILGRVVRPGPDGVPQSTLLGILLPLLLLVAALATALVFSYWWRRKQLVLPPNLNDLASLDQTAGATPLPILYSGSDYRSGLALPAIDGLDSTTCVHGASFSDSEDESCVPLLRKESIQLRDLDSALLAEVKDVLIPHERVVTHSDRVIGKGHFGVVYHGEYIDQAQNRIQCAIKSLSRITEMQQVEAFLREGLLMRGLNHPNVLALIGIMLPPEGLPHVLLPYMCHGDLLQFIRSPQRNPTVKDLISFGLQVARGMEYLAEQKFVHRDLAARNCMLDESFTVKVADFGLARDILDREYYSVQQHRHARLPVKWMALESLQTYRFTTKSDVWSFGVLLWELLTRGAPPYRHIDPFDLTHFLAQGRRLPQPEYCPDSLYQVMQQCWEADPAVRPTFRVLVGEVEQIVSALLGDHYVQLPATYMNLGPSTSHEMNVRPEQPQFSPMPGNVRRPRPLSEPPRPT

Compound	Activity [1] [%]	Activity [2] [%]	Activity [3] [%]	Activity [4] [%]	Activity [5] [%]	Activity [6] [%]	Activity [7] [%]	Activity [8] [%]	Activity [9] [%]	Activity [10] [%]	Activity [11] [%]	Activity [12] [%]	Activity [13] [%]	Activity [14] [%]	Activity [15] [%]	Activity [16] [%]	Activity [17] [%]	Activity [18] [%]	Activity [19] [%]	Activity [20] [%]	other results
CC1(C)[C@H](Nc2c(C(N)=O)cnn3cc(-c4ccccc4)cc23)CC[C@]1(C)N	99	100	91	100	68	100	100	100	81	100	100	96	100	100	19	100	59	89	65	100	Activity [21]: 81%; Activity [22]: 84%; Activity [23]: 54%; Activity [24]: 100%; Activity [25]: 100%
COc1ccc(-c2cc3c(N[C@@H]4CC[C@](C)(N)C4(C)C)c(C(N)=O)cnn3c2)cn1	96	89	90	100	86	100	91	100	100	96	72	97	64	100	64	100	100	100	100	100	Activity [21]: 100%; Activity [22]: 100%; Activity [23]: 59%; Activity [24]: 100%; Activity [25]: 96%
